This is an account of results in article PMC11079064, “Discovery of a brain penetrant small molecule antagonist targeting LPA1 receptors to reduce neuroinflammation and promote remyelination in multiple sclerosis” (Scientific Reports, 2024).

“Also recorded” adds a separate entry of the source.

Details of data set [1]: method as in PMID 34969771, PMID 30201408. The note with it: cited from earlier work.
Data set [2] concerns microglia. Briefly: LPA-induced microglial activation in hippocampal slices. The data set is classed as cell-based, mouse. Conditions: AM152, 10 µM LPA. The procedure:
Microglial activation was then triggered by the addition of 10 µM LPA, slices incubated for 3 additional hours, then fixed. Slices were immunostained against IBA1 and microglial perimeters were measured as a mean of differentiating between ramified/resting versus rounded/activated microglia.
Brains were harvested from mice (postnatal day 20, Charles River). […] 400 µm thick coronal slices were cut on a McIlwain tissue chopper and returned to dissection media and separated manually. […] Slices were incubated for 2 h at 37 °C (4 slices per condition). Microglial activation was initiated by adding LPA (18:1, Avanti Polar Lipids) to a final concentration of 10 µM and incubated for 3 h. Slices were then fixed in formalin and for 2 h.
For immunohistochemistry, slices were washed for 3 × 15 min in 0.5% Triton-X100 and DPBS. Slices were then stained using IBA-1 antibody (Thermo Scientific) in 10% normal goat serum with 0.5% Triton-X100 in DPBS overnight on a rocker. Slices were then washed in 0.5% Triton-X100 in DPBS 3 × 15 min. Goat anti-mouse Alexa 564 (1:500, Invitrogen, Carlsbad, CA) and […] (Invitrogen, Carlsbad, CA) were diluted in DPBS with 0.5% Triton-X100 and incubated for 2h. Slices were washed 3 × 15 min in DPBS with 0.5% Triton-X100, mounted with Fluoromount and imaged on a Nikon A1R confocal microscope.

Data set [3] has as its target T1, autotaxin (Rattus norvegicus, UniProt Q64610).
T1 construct: Male Sprague Dawley rat macrophages were isolated from intraperitoneal lavage fluid; endogenous in cells; host or cells: primary rat peritoneal macrophages
Briefly: LPA species in macrophage-conditioned media. The data set is classed as cell-based. Conditions: 1 µM, 48 h. The method, then:
Autotaxin (ATX), an enzyme responsible for LPA synthesis, is elevated in CSF samples from multiple sclerosis patients and may be an underlying source of elevated LPA levels in the CNS during disease. […] To confirm the release of LPA from these macrophages, macrophage-conditioned media was taken 30 min or 48 h after plating and various LPA species were measured by mass spectrometry.
Rat macrophages were cultured as described above. Media from wells at 30 m or 48 h post-plating were taken. Media from macrophages treated with 1 µM PF-8380 (autotaxin inhibitor, Sigma, St Louis, MO) for 48 h was also collected. For LPA determination, 20 µl of culture media was aliquoted into glass 12 × 75 mm culture test tubes. 500 µl of 30 mM citric acid/40 mM disodium phosphate buffer (pH 4.0) with 1 ng/ml 17:0 LPA as an internal standard (IS) were also added to the test tubes. 2 ml of 1-butanol were then added to the test tubes, tubes covered with parafilm, vortexed for 10 s, and centrifuged for 10 min at 1000g at 4 °C. After centrifugation, the top layers were transferred to clean test tubes. The bottom layers were extracted again with 1 ml of water-saturated butanol. The test tubes were covered with parafilm, vortexed for 10 s, and centrifuged for 10 min at 1000g at 4 °C. […] After reconstitution, the samples were analyzed by LC–MS/MS using an AB Sciex 6500 + . […]

Data set [4] relates to ROCK (Rho-associated kinase). Further details: method as in PMID 25289646. The note with it: cited from earlier work.

On to `Cc1noc(-c2ccc(-c3ccc(C4(C(=O)O)CC4)cc3)cc2)c1NC(=O)O[C@H](C)c1ccccc1` [AM152, reference compound], for which the “Phase 1 tolerability” value in data set [1] is given as “demonstrated Phase 1 tolerability”. Moreover, the “effect on LPA-induced decrease in microglial perimeter length” value in data set [2] is on record as “inhibits microglial activation; also recorded: inhibited”.
As to `CCCN(C)C(=O)OCc1c(-c2ccc(O[C@H]3CCC[C@H](C(=O)O)C3)c(C)n2)nnn1C` [BMS-986278], the “Phase 1 tolerability” value in data set [1] is reported as “demonstrated Phase 1 tolerability”.
On to `O=C(CCN1CCN(C(=O)OCc2cc(Cl)cc(Cl)c2)CC1)c1ccc2[nH]c(=O)oc2c1` [PF-8380], for which, in data set [3], the “effect on increase of LPA species in macrophage-conditioned media” value is on record as “prevents the induction of several LPA species; also recorded: inhibited”.
As to `O=S(=O)(c1cccc2cnccc12)N1CCCNCC1` [fasudil], the “effect on OPC differentiation” value in data set [4] is “leads to OPC differentiation”.
